Results on 4 compounds are retold here after paper PMC6894747 (PLoS Pathogens, 2019).

In one data set the test system is HIV-1 IIIB. Briefly: Inhibitors alone or in combination against HIV-1 IIIB. The data set is classed as cell-based. As to the method:
The samples were serially diluted and tested for their inhibitory activity on HIV-1 infection as described above. The data were analyzed for synergistic effect by calculating the combination index (CI) with the CalcuSyn software. CI values of <0.95 and >1.05 indicate synergy and antagonism, respectively. CI <0.1, 0.1–0.3, 0.3–0.7, 0.7–0.85, and 0.85–0.90 indicate very strong synergism, strong synergism, synergism, moderate synergism, and slight synergism, respectively. Fold of dose reduction was calculated with the ratio of concentrations of inhibitor testing alone and in combination.

Details of data set [1]: method as in PMID 16174446. The following applies: reported value; cited from earlier work.
The subject of data set [2] is HIV-1 IIIB (subtype B, X4). The class given is cell-based. Conditions: IIIB (subtype B, X4).
Procedure: (§2) Briefly, 1×10^5/mL MT-2 or M7 cells were infected with different HIV-1 viruses at 100 TCID50 (50% tissue culture infective dose) in the presence or absence of peptides at graded concentrations overnight. Then the culture supernatants were replaced with equal volume of fresh medium. On the fourth day post-infection, supernatants were collected and mixed with equal volume of 5% Triton X-100. […] The IC50 values were calculated with CalcuSyn software [35–36], and inhibition curves of best fit were generated with GraphPad Prism.
Data set [3] deals with HIV-1 Bal (subtype B, R5). The class given is cell-based. The following applies: Bal (subtype B, R5).
Procedure: as §2
Data set [4] has as its system H9/HIV-1IIIB target cells with PBMC effector cells. Briefly: ADCC assay, 10E8-mediated lysis. The class given is cell-based, human. Conditions: peptide up to 20 μM added to 10E8. As to the method:
H9/HIV-1IIIB cells expressing HIV-1 Env (2.5 × 10^4 cells) as the target cells were seeded into a 96-well plate (25 μL/well), and the mixture of a serially diluted inhibitors and 10E8 (1.5 μg/mL) was added to the culture plate. PBMC (AllCells) as effector cells (2.5 × 10^4 cells in 25 μL) were cocultured with the mixture-treated target cells at 37 °C overnight, and the […] activity was measured using the CytoTox-ONE Homogeneous Membrane Integrity Assay (Promega).

The next data set deals with rhesus monkey IgG. Nature of the data set: Isothermal titration calorimetry (ITC). The class given is binding. The following applies: 300 μM peptide injected into 30 μM rhesus monkey IgG, PBS, 25 °C. As to the method: ITC assay was performed with an ITC microcalorimeter instrument (NANO ITC, TA Instruments, Lindon, UT) as described previously. In brief, 300 μM peptides were dissolved in PBS and injected into the chamber containing 30 μM of rhesus monkey IgG. The experiments were carried out at 25 °C. The time between injections was 300 s, and the stirring speed was 300 rpm. The heats of dilution were determined in control experiments by injecting peptides into PBS and then subtracting from the heats produced in the corresponding peptide-IgG binding experiments. Data acquisition and analysis were performed using the Origin software, and the best fitting curves were generated with GraphPad Prism.
For orientation: In ITC the heat of successive injections is recorded.

The next data set relates to MT-2 cells. Nature of the data set: Cytotoxicity assay (CCK-8). The data set is classed as cell-based. Conditions: up to 5 μM, 48 h, CCK-8; triplicate. As to the method: (§1) The potential cytotoxicity of peptides on MT-2 and M7 cells was measured by using the Cell Counting Kit-8 according to the manufacturer’s instructions (CCK-8, Dojindo Laboratories, Kumamoto, Japan). Briefly, 100 μL of a peptide at graded concentrations were added to equal volumes of cells (10^4 cells/well) in a 96-well plate. Cell viability was evaluated using the CCK-8 kit after incubation at 37 °C for 2 days. Incubation with CCK-8 reagents at 37 °C for another 4 h, the absorbance at 450 nm was measured with an ELISA reader, and the percentage of cytotoxicity was calculated.

A further data set deals with M7 cells. Nature of the data set: Cytotoxicity assay (CCK-8). The class given is cell-based. Conditions: up to 5 μM, 48 h, triplicate. As to the method: as §1

Where two headings read alike, the source gives them in different places. Positions of bridges follow the written chain, without caps; N, C: chain ends. Residues, ends and D or L forms follow the SMILES beside them.

Broadly, the IC50 is the concentration at which inhibition is half-maximal. On to `CC1(C)CC(NC(=O)C(=O)Nc2ccc(Cl)cc2)CC(C)(C)N1` [NBD556], for which the IC50 in the data set on HIV-1 IIIB (experiment N6 / NBD556, HIV-1 IIIB, read-out: IC50 Alone) was 28.1 µM; in the data set on HIV-1 IIIB (mixture N6 / NBD556, HIV-1 IIIB, read-out: IC50 In mixture) it was 4.61 µM. The Dose reduction with HIV-1 IIIB (mixture N6 / NBD556, HIV-1 IIIB) was 6.1 fold.
Turning to enfuvirtide, the “reported t1/2” value in data set [1] is listed as 3 h.
`CC[C@H](C)[C@H](NC(=O)[C@H](CC(C)C)NC(=O)[C@H](CCC(=O)O)NC(=O)[C@H](CCC(=O)O)NC(=O)[C@@H](NC(=O)[C@H](CCCCN)NC(=O)[C@H](CCCCN)NC(=O)[C@@H](NC(=O)[C@H](Cc1ccc(O)cc1)NC(=O)[C@H](CCC(=O)O)NC(=O)[C@H](CCC(=O)O)NC(=O)[C@@H](NC(=O)[C@H](CCCCN)NC(=O)[C@H](CCCCN)NC(=O)[C@H](CC(=O)O)NC(=O)[C@H](Cc1c[nH]c2ccccc12)NC(=O)[C@H](CCC(=O)O)NC(=O)[C@H](CCC(=O)O)NC(=O)[C@H](Cc1c[nH]c2ccccc12)NC(=O)[C@@H](NC(=O)[C@@H](N)CCSC)[C@@H](C)O)[C@@H](C)CC)[C@@H](C)O)[C@@H](C)CC)C(=O)N[C@@H](CCCCN)C(=O)N[C@@H](CCCCN)C(=O)N[C@@H](CO)C(=O)N[C@@H](CC(=O)O)C(=O)N[C@H]1CSSC[C@@H](C(=O)N[C@H](C(=O)O)[C@@H](C)O)NC(=O)[C@H](Cc2c[nH]c3ccccc23)NC(=O)[C@H](C(C)C)NC(=O)[C@H](CC(C)C)NC(=O)[C@H](CCC(=O)O)NC(=O)CNC(=O)[C@H](CC(C)C)NC(=O)[C@H](Cc2c[nH]cn2)NC(=O)[C@H](Cc2c[nH]c3ccccc23)NC(=O)[C@H](C)NC1=O` [CP24-IBP] (H-MTWEEWDKKIEEYTKKIEELIKKSDCAWHLGELVWCT-OH; disulfide 26-36): the IC50 in data set [2] came out at 0.0413 µM; in data set [3] it was 0.011 µM.
In general, Kd refers to the equilibrium constant for the complex coming apart. `CC(C)C[C@@H]1NC(=O)[C@H](Cc2c[nH]cn2)NC(=O)[C@H](Cc2c[nH]c3ccccc23)NC(=O)[C@H](C)NC(=O)[C@@H](NC(=O)[C@@H](N)CC(=O)O)CSSC[C@@H](C(=O)N[C@H](C(=O)O)[C@@H](C)O)NC(=O)[C@H](Cc2c[nH]c3ccccc23)NC(=O)[C@H](C(C)C)NC(=O)[C@H](CC(C)C)NC(=O)[C@H](CCC(=O)O)NC(=O)CNC1=O` [IBP]: the “effect on 10E8-mediated lytic activity” value in data set [4] is given as “remained about the same”. Binding at rhesus monkey IgG was put at a Kd of 2.44 µM. The “in vitro cytotoxicity to MT-2 cells” value in the data set on MT-2 cells is given as “no in vitro cytotoxicity”. The “in vitro cytotoxicity to M7 cells” value with M7 cells is listed as “no in vitro cytotoxicity”.
